Measurements from paper PMC6295574, “Molecular and Functional Characterization of Odorant Binding Protein 7 From the Oriental Fruit Moth Grapholita molesta (Busck) (Lepidoptera: Tortricidae)” (Frontiers in Physiology, 2018).
“Also recorded” adds a separate entry of the source. Read-outs that look alike come from different tables or passages of the source.

Legend:
[1] = target: T1, rGmolOBP7 (recombinant GmolOBP7) (Grapholita molesta, UniProt A0A2R4SBC1); assay: biochemical; format: binding; details: for binding to rGmolOBP7 (in words): competitive binding, 1-NPN probe
Description: (§1) Fluorescence intensity was detected on a spectrophotofluorometer (F-4500, Hitachi, Japan) at room temperature using a quartz cuvette with a 1 cm light path. The silt width of excitation and emissions were all 10 nm. The fluorescence probe 1-NPN was excited at 337 nm and the emission spectra were recorded between 370 and 550 nm. Four sex pheromone components and 31 volatiles, derived from peach shoots and pear fruits, were selected for binding assays (Table 2). The probe 1-NPN and tested ligands were all dissolved in spectrophotometric-grade methanol to obtain a 1 mM stock solution.
The corresponding florescence intensity values were collected as three independent measurements. The binding constant (K1−NPN) of 1-NPN to rGmolOBP7 was calculated using GraphPad Prism 5 software (GraphPad Software, Inc.) via nonlinear regression for a unique site of binding.

[2] = test system: Grapholita molesta antennae; assay: EAG responses of GmolOBP7-dsRNA-injected moths to stimulants; details: stimulant 10 mg/mL in liquid paraffin; for EAG response of dsRNA-treated moths vs non-injected control: male and female moths, 1-day-old; for EAG response of dsGmolOBP7-injected male moths vs dsGFP-injected and non-injected controls: 1-day-old males
Description: Based on the expression patterns observed at different insect stages, 5-day-old G. molesta pupae (later-pupae) were selected to receive a dsRNA microinjection. The conjunctivum between the prothorax and mesothorax, the conjunctivum between the mesothorax and metathorax and the conjunctivum between the thorax and abdomen were initially selected as putative injection sites. Then, 39, 69, and 138 nL of RNase-free H2O were injected into different conjunctiva, respectively. A total of 69 nL (approximately 241.5 ng dsRNA) of dsGmolOBP7 or dsGFP was injected into the appropriate injection sites of each 5-day-old pupa, by using a PL1-100 Pico-Injector (Harvard Apparatus, Holliston, MA, USA) operated by an MP-255 Micromanipulator (Sutter, Novato, CA, USA). Each type of dsRNA was injected into 600 male and 600 female moths. The heads (with antenna) of 1-, 2-, 3-, and 4 day-old adults were dissected and immediately stored at −80°C prior to use. The total RNA and first-strand cDNA were obtained in accordance with previous methods. The specimens were used for qRT-PCR analysis to test the reduction in GmolOBP7 transcription. Experiments were performed with three biological replicates and three technical replicates.
EAG responses of dsRNA-injected (including dsGmolOBP7 and dsGFP) moths and non-injected controls, to sex pheromones and host plant volatiles were detected using Electroantennography. All stimulants were diluted with liquid paraffin to the final concentration of 10 mg/mL. Liquid paraffin and cis-3-hexenyl acetate were used as the blank and reference control, respectively. Both ends of adult antennae were cut and blocked with a drop of Spectra® 360 Electrode Gel (Parker Laboratories, Fairfield, USA). The basal section was connected to the reference electrode while the distal end was linked to the recording electrode. A filtered humidified air stream was delivered by a Syntech stimulus controller (CS55 model, Syntech, Germany) at a constant flow rate of 50 cm/s, and the time of stimuli flow was 0.5 s. Filter paper strips (0.6 cm × 4.5 cm) were dripped with 15 μL of chemical solution as a stimulus source and inserted into a 1.5 mL micropipet tip. A set of stimulants consisted of four sex pheromones and five host-plant volatiles which can be strongly bound with rGmolOBP7. Each antenna measured the group of randomly arranged stimulants described above. The antennae were stimulated one time with liquid paraffin and cis-3-hexenyl acetate and dissolved in solvent, before and after each group stimulation, in order to ensure the tested antenna were activated and the connecting pipe was not contaminated by stimulants. Recordings per stimulant were taken and the antennal responses were recorded. Eight male and female antennae were measured for each stimulant. The paired t-test was used to determine whether the difference in EAG values were significant between the dsRNA injected moths (dsGmolOBP7 and dsGFP) and the non-injected control. All the data were analyzed using SPSS 18.0 software (SPSS Inc., Chicago, IL, USA).

[3] = target: T1, rGmolOBP7 (recombinant GmolOBP7); assay: Binding of fluorescence probe 1-NPN to rGmolOBP7 (binding curve, Scatchard plot); details: 2 μM protein in 20 mM Tris-HCl pH 7.4, 1-NPN up to 18 μM; read-out: dissociation constant (Kd) of 1-NPN
Description: as §1, with “solution. The binding affinity of rGmolOBP7 with 1-NPN was measured by adding aliquots of 1-NPN to a 2 μM protein solution (diluted with 20 mM Tris-HCl pH 7.4) to final concentrations of 0 to 18 μM.” for “solution.”
The corresponding florescence intensity values were collected as three independent measurements. The binding constant (K1−NPN) of 1-NPN to rGmolOBP7 was calculated using GraphPad Prism 5 software (GraphPad Software, Inc.) via nonlinear regression for a unique site of binding. The dissociation constant (Ki) of each ligands competitive binding to rGmolOBP7, were calculated from the corresponding IC50, by using the equation Ki = [IC50]/(1+[1-NPN]/K1−NPN), where [1-NPN] is the free concentration of 1-NPN, and K1−NPN is the dissociation constant of the complex protein/1-NPN.

[4] = test system: male antennae of G. molesta; design: method as in Cardé et al., 1975, 1979; details: ref Cardé et al., 1975, 1979; cited from earlier work
[5] = 2 μM rGmolOBP7 and 2 μM 1-NPN, 20 mM Tris-HCl pH 7.4, room temperature, three independent measurements, read-out: IC50
[6] = calculated from IC50 by Ki = [IC50]/(1+[1-NPN]/K1-NPN), read-out: Ki

T1 sequence (A0A2R4SBC1 entry or part of it): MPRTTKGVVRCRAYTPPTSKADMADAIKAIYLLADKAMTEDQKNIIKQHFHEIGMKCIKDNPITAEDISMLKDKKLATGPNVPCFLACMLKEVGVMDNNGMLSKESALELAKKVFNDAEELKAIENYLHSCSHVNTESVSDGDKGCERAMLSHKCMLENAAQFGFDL

SMILES	IC50 [1] [µM]	Ki [1] [µM]	IC50 [1, 5] [µM]	Ki [1, 6] [µM]	also measured
CCCCCCCCCCO [1-Decanol]	> 35	> 35	–	–	–
CCC/C=C\CCCCCCCO [(Z)-8-dodecenyl alcohol]	–	–	> 35	> 35	binding to rGmolOBP7 (in words) [1]: did not bind; EAG response of dsRNA-treated moths vs non-injected control [2]: not significantly different
CCC/C=C\CCCCCCCOC(C)=O [(Z)-8-dodecenyl acetate]	–	–	–	–	binding to rGmolOBP7 (in words) [1]: did not bind; EAG response of dsRNA-treated moths vs non-injected control [2]: not significantly different
N#Cc1ccccc1 [Benzonitrile]	17.9 ± 1.29	12.5	–	–	–
CCC(C)=CCCC(C)=CC#N [Lemonile]	–	–	> 35	> 35	–
CC/C=C\CCOC(C)=O [(Z)-3-Hexenyl acetate]	–	–	19.6 ± 0.27	13.7	EAG response of dsRNA-treated moths vs non-injected control [2]: not significantly different
CCCCCCCCCCCCCCO [1-Tetradecanol]	> 35	> 35	–	–	–
CCCCCCCCC=O [Nonanal]	–	–	28.6 ± 3.38	19.9	–
CC/C=C\CCO [(Z)-3-Hexen-1-ol]	17.6 ± 0.52	12.3	–	–	–
CCCCCC(=O)OCCCC [Butyl hexanoate]	–	–	24.4 ± 0.77	17	–
CCC/C=C/C=O [(E)-2-Hexenal]	24.4 ± 1.53	17	–	–	–
CCC/C=C/CCCCCCCOC(C)=O [(E)-8-dodecenyl acetate]	–	–	> 35	> 35	binding to rGmolOBP7 (in words) [1]: did not bind; EAG response of dsRNA-treated moths vs non-injected control [2]: not significantly different
CCCCCCCCCCCCCC=O [Tetradecanal]	–	–	> 35	> 35	–
CC1=CCC2CC1C2(C)C (stereo not drawn) [α-Pinene]	17.1 ± 1.2	11.9	–	–	EAG response of dsRNA-treated moths vs non-injected control [2]: not significantly different
C=C1CC/C=C(\C)CC[C@@H]2[C@@H]1CC2(C)C [β-Caryophyllene]	> 35	> 35	–	–	–
CC/C=C\CC1C(=O)CCC1CC(=O)OC (stereo not drawn) [Methyl jasmonate]	–	–	18.7 ± 0.22	13	–
CCCCC/C=C\C=C\C(=O)OCC [Pear ester, Ethyl (E, Z)-2,4-decadienate]	–	–	3.62 ± 0.25	2.52	EAG response of dsGmolOBP7-injected female moths vs dsGFP-injected and non-injected controls ([2]; 1-day-old females, 15 μL): significantly reduced; also recorded: significantly decreased; EAG response of dsGmolOBP7-injected male moths vs dsGFP-injected and non-injected controls ([2]; 15 μL): significantly reduced; also recorded: significantly decreased
C=CC(C)(O)CCC=C(C)C (stereo not drawn) [Linalool]	21.7 ± 1.11	15.1	–	–	–

SMILES	IC50 [1] [µM]	Ki [1] [µM]	IC50 [1, 5] [µM]	Ki [1, 6] [µM]	also measured
CCCCCCCCCCCCCC(=O)OC [Methyl myristate]	–	–	> 35	> 35	–
CCCCCCCCCCCCCCCCO [1-Hexadecanol]	–	–	> 35	> 35	–
COC(=O)c1ccccc1O [Methyl salicylate]	14.1 ± 0.22	9.81	–	–	–
C=CC(C)(O)CCC=C(C)CCC=C(C)C (mixture of isomers) [Nerolidol]	–	–	> 35	> 35	–
CCCCOC(C)=O [Butyl acetate]	18.1 ± 1.57	12.6	–	–	–
CCCCCCC=O [Heptanal]	15.7 ± 0.64	–	–	10.9	–
CCCCCCCCCCCC=O [Lauraldehyde]	–	–	6.18 ± 0.43	4.31	EAG response of dsRNA-treated moths vs non-injected control [2]: not significantly different
CCCCCCCCCCCCCCCC(=O)OC [Methyl palmitate]	–	–	> 35	> 35	–
CCCCCC=O [Hexanal]	27.4 ± 1.59	19.1	–	–	–
CCCCOC(=O)CCC [Butyl butyrate]	–	–	16.3 ± 1.71	11.3	–
c1ccc(Nc2cccc3ccccc23)cc1 [1-NPN, N-phenyl-1-naphthylamine]	–	–	–	–	Kd [3]: 2.3 µM
C=C1[C@@H]2CC[C@@H](C2)C1(C)C [(-)-Camphene]	–	–	> 35	> 35	–
C=C/C(C)=C/CCC(=C)C [α-Ocimene]	–	–	11.1 ± 0.2	7.75	EAG response of dsRNA-treated moths vs non-injected control [2]: not significantly different
CCCCCCCCCC=O [Decanal]	–	–	18.2 ± 1.27	12.7	–
O=Cc1ccccc1 [Benzaldehyde]	20.2 ± 0.27	14.1	–	–	–
CCCCCCO [1-Hexanol]	24.9 ± 1.28	–	–	17.4	–
OCc1ccccc1 [Benzyl alcohol]	> 35	> 35	–	–	–
CCCCCCCCCCCCO [1-Dodecanol]	–	–	10.7 ± 0.85	7.48	EAG response of dsGmolOBP7-injected male moths vs dsGFP-injected and non-injected controls ([2]; 15 μL): significantly reduced; EAG response of dsGmolOBP7-injected male moths vs dsGFP-injected and non-injected controls ([2]; 15 μL, listed as 12:OH): significantly decreased; EAG response of male antennae [4]: weak EAG response
